Test results published in patent US8691846B2, “Piperidine sulphonamide derivatives” (Hoffmann-La Roche, Inc., priority 2008, dated 2014).
Like-named read-outs stand apart in the source and are kept apart here.

Biological target: T1, human orexin-2 (hOX2) receptors (Homo sapiens, UniProt O43614)
T1 construct: expressed in transfected cells
T1 sequence (O43614 1-444): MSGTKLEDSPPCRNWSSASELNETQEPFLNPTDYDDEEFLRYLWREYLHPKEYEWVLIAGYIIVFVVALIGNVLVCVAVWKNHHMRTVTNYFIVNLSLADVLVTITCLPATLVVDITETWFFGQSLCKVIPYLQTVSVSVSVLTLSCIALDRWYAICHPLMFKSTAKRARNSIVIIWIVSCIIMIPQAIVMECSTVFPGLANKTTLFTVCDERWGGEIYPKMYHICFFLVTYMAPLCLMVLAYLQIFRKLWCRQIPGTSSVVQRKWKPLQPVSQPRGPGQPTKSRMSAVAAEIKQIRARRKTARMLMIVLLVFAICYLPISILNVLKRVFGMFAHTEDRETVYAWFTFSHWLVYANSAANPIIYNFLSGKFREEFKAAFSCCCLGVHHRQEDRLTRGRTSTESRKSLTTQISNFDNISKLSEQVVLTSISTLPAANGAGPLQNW
Experiment: Intracellular Ca2+ mobilization assay (FLIPR), antagonism of orexin-A in CHO(dHFr-) cells expressing hOX2
Assay type: cell-based
Details: CHO(dHFr-)-OX2R cells, orexin-A at EC80 as agonist, Kb=IC50/(1+[A]/EC50)
Procedure: Intracellular Ca^2+ Mobilization Assay
The Chinese Hamster Ovary (dHFr−) mutant cell line stably expressing human orexin-1 (hOX1) or human orexin-2 (hOX2) receptors were maintained in Dulbecco's Modified Eagle Medium (1×) with GlutaMax™ 1, 4500 mg/L D-Glucose and Sodium Pyruvate (Catalog No. 31966-021, Invitrogen, Carlsbad, Calif.), 5% dialyzed fetal calf serum (Catalog No. 26400-044), 100 μg/ml penicillin and 100 μg/ml streptomycin. The cells were seeded at 5×10^4 cells/well in the poly-D-lysine treated, 96-well, black/clear-bottomed plates (Catalog No. BD356640, BD Biosciences, Palo Alto, Calif.). 24 h later, the cells were loaded for 1 h at 37° C. with 4 μM Flou-4 acetoxymethyl ester (Catalog No. F-14202, Molecular Probes, Eugene, Oreg.) in FLIPR buffer (1×HBSS, 20 mM HEPES, 2.5 mM Probenecid). Hanks' Balanced Salt Solution (HBSS) (10×) (catalog No. 14065-049) and HEPES (1M) (catalog No. 15630-056) were purchased from Invitrogen, Carlsbad, Calif. Probenecid (250 mM) (catalog No. P8761) was from Sigma, Buchs, Switzerland. The cells were washed five times with FLIPR buffer to remove excess dye and intracellular calcium mobilization, [Ca^2′]I were measured using a Fluorometric Imaging Plate Reader (FLIPR-96, Molecular Devices, Menlo Park, Calif.) as described previously (Malherbe et al., Mol. Pharmacol., 64, 823-832, 2003). Orexin A (catalog No. 1455, Toris Cookson Ltd, Bristol, UK) was used as agonist. Orexin A (50 mM stock solution in DMSO) was diluted in FLIPR buffer+0.1% BSA. The EC50 and EC80 values of orexin-A were measured daily from standard agonist concentration-response curves in CHO(dHFr−)-OX1R and -OX2R cell lines. All compounds were dissolved in 100% DMSO Inhibition curves were determined by addition of 11 concentrations (0.0001-10 μM) of inhibitory compounds and using EC80 value of orexin-A as agonist (a concentration which gave 80% of max agonist response, determined daily). The antagonists were applied 25 min (incubation at 37° C.) before the application of the agonist. Responses were measured as peak increase in fluorescence minus basal, normalized to the maximal stimulatory effect induced by EC80 value of orexin-A or orexin-B Inhibition curves were fitted according to the Hill equation: y=100/(1+(x/IC50)^nH), where nH=slope factor using Excel-fit 4 software (Microsoft).
Kb values were calculated according to the following equation Kb=IC50/(1+[A]/EC50) where A is the concentration of agonist added which is very close to agonist EC80 value, and IC50 and EC50 values were derived from the antagonist inhibition and orexin-A or B agonist curves, respectively.

Kb (read-out: Kb (μM) OX2R (human)) [µM] | Kb (Table 1, read-out: Kb hOx2) [µM] | SMILES
0.0788 |  | O=C(C1CCCN(S(=O)(=O)c2ccccc2Cl)C1)N1CCCC1c1ccc(F)cc1 (centres unmarked) [Example 3, [1-(2-Chloro-benzenesulfonyl)-piperidin-3-yl]-[2-(4-fluoro-phenyl)-pyrrolidin-1-yl]-methanone]
 | 0.118 | O=C(C1CCCN(S(=O)(=O)c2ccccc2Cl)C1)N1CCCCC1c1ccccc1 (centres unmarked) [Example 4, [1-(2-Chloro-benzenesulfonyl)-piperidin-3-yl]-(2-phenyl-piperidin-1-yl)-methanone]
 | 0.55 | O=C(C1CCCN(S(=O)(=O)c2cccc(Cl)c2)C1)N1CCCCC1c1ccccc1 (centres unmarked) [Example 5, [1-(3-Chloro-benzenesulfonyl)-piperidin-3-yl]-(2-phenyl-piperidin-1-yl)-methanone]
 | 0.756 | O=C(C1CCCN(S(=O)(=O)c2ccc(F)cc2)C1)N1CCCCC1c1ccccc1 (centres unmarked) [Example 6, [1-(4-Fluoro-benzenesulfonyl)-piperidin-3-yl]-(2-phenyl-piperidin-1-yl)-methanone]
0.02 |  | O=C(C1CCCN(S(=O)(=O)c2ccccc2Cl)C1)N1CCCC1c1ccccc1 (centres unmarked) [Example 7, [1-(2-Chloro-benzenesulfonyl)-piperidin-3-yl]-(2-phenyl-pyrrolidin-1-yl)-methanone]
0.0219 |  | O=C(C1CCCN(S(=O)(=O)c2cccc(Cl)c2)C1)N1CCCC1c1ccccc1 (centres unmarked) [Example 8, [1-(3-Chloro-benzenesulfonyl)-piperidin-3-yl]-(2-phenyl-pyrrolidin-1-yl)-methanone]
 | 0.122 | COc1cccc(S(=O)(=O)N2CCCC(C(=O)N3CCCC3c3ccccc3)C2)c1 (centres unmarked) [Example 9, [1-(3-Methoxy-benzenesulfonyl)-piperidin-3-yl]-(2-phenyl-pyrrolidin-1-yl)-methanone]
0.0226 |  | COc1ccccc1S(=O)(=O)N1CCCC(C(=O)N2CCCCC2c2ccccc2)C1 (centres unmarked) [Example 10, [1-(2-Methoxy-benzenesulfonyl)-piperidin-3-yl]-(2-phenyl-piperidin-1-yl)-methanone]
0.0053 |  | COc1ccccc1S(=O)(=O)N1CCCC(C(=O)N2CCCC2c2ccccc2)C1 (centres unmarked) [Example 11, [1-(2-Methoxy-benzenesulfonyl)-piperidin-3-yl]-(2-phenyl-pyrrolidin-1-yl)-methanone]
 | 0.309 | O=C(C1CCCN(S(=O)(=O)c2ccccc2)C1)N1CCCCC1c1ccccc1 (centres unmarked) [Example 12, (1-Benzenesulfonyl-piperidin-3-yl)-(2-phenyl-piperidin-1-yl)-methanone]
 | 0.334 | O=C(C1CCCN(S(=O)(=O)c2ccc(F)cc2)C1)N1CCCC1c1ccccc1 (centres unmarked) [Example 13, [1-(4-Fluoro-benzenesulfonyl)-piperidin-3-yl]-(2-phenyl-pyrrolidin-1-yl)-methanone]
0.0138 |  | COc1ccc(Cl)cc1S(=O)(=O)N1CCCC(C(=O)N2CCCC2c2ccccc2)C1 (centres unmarked) [Example 14, [1-(5-Chloro-2-methoxy-benzenesulfonyl)-piperidin-3-yl]-(2-phenyl-pyrrolidin-1-yl)-methanone]
 | 0.258 | O=C(C1CCCN(S(=O)(=O)c2ccccc2)C1)N1CCCC1c1ccccc1 (centres unmarked) [Example 15, (1-Benzenesulfonyl-piperidin-3-yl)-(2-phenyl-pyrrolidin-1-yl)-methanone]
0.0592 |  | COc1ccc(Cl)cc1S(=O)(=O)N1CCCC(C(=O)N2CCCCC2c2ccccc2)C1 (centres unmarked) [Example 16, [1-(5-Chloro-2-methoxy-benzenesulfonyl)-piperidin-3-yl]-(2-phenyl-piperidin-1-yl)-methanone]
0.0113 |  | O=C(C1CCCN(S(=O)(=O)c2ccccc2Cl)C1)N1CCCC1c1ccccc1Cl (centres unmarked) [Example 17, [1-(2-Chloro-benzenesulfonyl)-piperidin-3-yl]-[2-(2-chloro-phenyl)-pyrrolidin-1-yl]-methanone]
 | 0.75 | O=C(C1CCCN(S(=O)(=O)c2ccccc2Cl)C1)N1CCCC1c1ccc(Cl)c(Cl)c1 (centres unmarked) [Example 18, [1-(2-Chloro-benzenesulfonyl)-piperidin-3-yl]-[2-(3,4-dichloro-phenyl)-pyrrolidin-1-yl]-methanone]
 | 0.67 | O=C(C1CCCN(S(=O)(=O)c2ccccc2Cl)C1)N1CCCC1c1cc(Cl)cc(Cl)c1 (centres unmarked) [Example 19, [1-(2-Chloro-benzenesulfonyl)-piperidin-3-yl]-[2-(3,5-dichloro-phenyl)-pyrrolidin-1-yl]-methanone]
